Test results reported in PubChem BioAssay (NCI).
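A five-concentration, 48-hour dose response in 96-well plates underlies each endpoint, interpolated linearly between surrounding concentrations. TGI marks complete inhibition of growth.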

How the values were obtained:
Assay in all cases: DTP human tumour cell line panel, 48 h
U251 CNS = tested on: U251 CNS
786-0 renal = tested on: 786-0 renal
SNB-75 CNS = tested on: SNB-75 CNS
M14 melanoma = tested on: M14 melanoma
HOP-92 NSCLC = tested on: HOP-92 NSCLC
KM12 colon = tested on: KM12 colon
OVCAR-5 ovarian = tested on: OVCAR-5 ovarian
OVCAR-3 ovarian = tested on: OVCAR-3 ovarian
RXF 393 renal = tested on: RXF 393 renal
CCRF-CEM leukemia = tested on: CCRF-CEM leukemia
OVCAR-8 ovarian = tested on: OVCAR-8 ovarian
NCI-H226 lung = tested on: NCI-H226 lung
SK-MEL-5 melanoma = tested on: SK-MEL-5 melanoma
OVCAR-4 ovarian = tested on: OVCAR-4 ovarian
EKVX NSCLC = tested on: EKVX NSCLC
UACC-257 melanoma = tested on: UACC-257 melanoma
NCI-H23 lung = tested on: NCI-H23 lung
K-562 leukemia = tested on: K-562 leukemia
A498 renal = tested on: A498 renal
CAKI-1 renal = tested on: CAKI-1 renal
NCI-H522 lung = tested on: NCI-H522 lung
DLD-1 colon = tested on: DLD-1 colon
LOX IMVI melanoma = tested on: LOX IMVI melanoma
ACHN renal = tested on: ACHN renal
LXFL 529 NSCLC = tested on: LXFL 529 NSCLC
SF-539 CNS = tested on: SF-539 CNS
SK-MEL-28 melanoma = tested on: SK-MEL-28 melanoma
HCT-116 colon = tested on: HCT-116 colon
TK-10 renal = tested on: TK-10 renal
UO-31 renal = tested on: UO-31 renal
RXF-631 renal = tested on: RXF-631 renal
HOP-18 NSCLC = tested on: HOP-18 NSCLC
HCT-15 colon = tested on: HCT-15 colon
HOP-62 NSCLC = tested on: HOP-62 NSCLC
SN12C renal = tested on: SN12C renal
M19-MEL melanoma = tested on: M19-MEL melanoma
UACC-62 melanoma = tested on: UACC-62 melanoma
HCC-2998 colon = tested on: HCC-2998 colon
SK-MEL-2 melanoma = tested on: SK-MEL-2 melanoma
HL-60(TB) leukemia = tested on: HL-60(TB) leukemia
HT29 colon = tested on: HT29 colon
DMS 273 small cell lung = tested on: DMS 273 small cell lung
SF-268 CNS = tested on: SF-268 CNS
SNB-19 CNS = tested on: SNB-19 CNS
MALME-3M melanoma = tested on: MALME-3M melanoma
SNB-78 CNS = tested on: SNB-78 CNS
KM20L2 colon = tested on: KM20L2 colon
DMS 114 small cell lung = tested on: DMS 114 small cell lung
SW-620 colon = tested on: SW-620 colon
SK-OV-3 ovarian = tested on: SK-OV-3 ovarian
IGROV1 ovarian = tested on: IGROV1 ovarian
SF-295 CNS = tested on: SF-295 CNS
COLO 205 colon = tested on: COLO 205 colon
A549 NSCLC = tested on: A549 NSCLC
NCI-H460 lung = tested on: NCI-H460 lung
XF 498 CNS = tested on: XF 498 CNS
SR leukemia = tested on: SR leukemia
RPMI-8226 leukemia = tested on: RPMI-8226 leukemia
MOLT-4 leukemia = tested on: MOLT-4 leukemia

For `Nc1ccc2c(c1)C(=O)N(OS(=O)(=O)c1ccccc1)C2=O`, the TGI (U251 CNS) was over 100 µM, the TGI (786-0 renal) was over 100 µM and the TGI (SNB-75 CNS) was over 100 µM. The TGI (M14 melanoma) was over 100 µM, the TGI (HOP-92 NSCLC) was over 100 µM and the TGI (KM12 colon) was over 100 µM. The TGI (OVCAR-5 ovarian) was over 100 µM, the TGI (OVCAR-3 ovarian) was over 100 µM and the TGI (RXF 393 renal) was over 100 µM. The TGI (CCRF-CEM leukemia) was over 100 µM, the TGI (OVCAR-8 ovarian) was over 100 µM and the TGI (NCI-H226 lung) was over 100 µM. It also gave a TGI (SK-MEL-5 melanoma) of over 100 µM, a TGI (OVCAR-4 ovarian) of over 100 µM and a TGI (EKVX NSCLC) of over 100 µM. For the same compound, the TGI (UACC-257 melanoma) was over 100 µM, the TGI (NCI-H23 lung) was over 100 µM and the TGI (K-562 leukemia) was over 100 µM. It also gave a TGI (A498 renal) of over 100 µM, a TGI (CAKI-1 renal) of over 100 µM and a TGI (NCI-H522 lung) of 60.7 µM. It also gave a TGI (DLD-1 colon) of over 100 µM, a TGI (LOX IMVI melanoma) of over 100 µM and a TGI (ACHN renal) of over 100 µM. The TGI (LXFL 529 NSCLC) was over 100 µM, the TGI (SF-539 CNS) was over 100 µM and the TGI (SK-MEL-28 melanoma) was over 100 µM. For the same compound, the TGI (HCT-116 colon) was over 100 µM, the TGI (TK-10 renal) was over 100 µM and the TGI (UO-31 renal) was over 100 µM. It also gave a TGI (RXF-631 renal) of over 100 µM, a TGI (HOP-18 NSCLC) of over 100 µM and a TGI (HCT-15 colon) of over 100 µM. For the same compound, the TGI (HOP-62 NSCLC) was over 100 µM, the TGI (SN12C renal) was over 100 µM and the TGI (M19-MEL melanoma) was over 100 µM. It also gave a TGI (UACC-62 melanoma) of over 100 µM, a TGI (HCC-2998 colon) of over 100 µM and a TGI (SK-MEL-2 melanoma) of over 100 µM. It also gave a TGI (HL-60(TB) leukemia) of over 100 µM, a TGI (HT29 colon) of over 100 µM and a TGI (DMS 273 small cell lung) of over 100 µM. The TGI (SF-268 CNS) was over 100 µM, the TGI (SNB-19 CNS) was over 100 µM and the TGI (MALME-3M melanoma) was over 100 µM. For the same compound, the TGI (SNB-78 CNS) was over 100 µM, the TGI (KM20L2 colon) was over 100 µM and the TGI (DMS 114 small cell lung) was over 100 µM. For the same compound, the TGI (SW-620 colon) was over 100 µM, the TGI (SK-OV-3 ovarian) was over 100 µM and the TGI (IGROV1 ovarian) was over 100 µM. For the same compound, the TGI (SF-295 CNS) was over 100 µM, the TGI (COLO 205 colon) was over 100 µM and the TGI (A549 NSCLC) was over 100 µM. The TGI (NCI-H460 lung) was over 100 µM and the TGI (XF 498 CNS) was over 100 µM.
In the case of `COc1ccc(NC(=O)/C(Cc2nc3ccccc3[nH]c2=O)=N\O)c(OC)c1`, the TGI (U251 CNS) is reported as over 100 µM, the TGI (786-0 renal) is reported as over 100 µM and the TGI (SNB-75 CNS) is reported as over 100 µM. For the same compound, the TGI (M14 melanoma) was over 100 µM, the TGI (HOP-92 NSCLC) was over 100 µM and the TGI (KM12 colon) was over 100 µM. For the same compound, the TGI (OVCAR-5 ovarian) was over 100 µM, the TGI (OVCAR-3 ovarian) was over 100 µM and the TGI (RXF 393 renal) was over 100 µM. It also gave a TGI (CCRF-CEM leukemia) of over 100 µM, a TGI (OVCAR-8 ovarian) of over 100 µM and a TGI (NCI-H226 lung) of over 100 µM. The TGI (SR leukemia) was over 100 µM, the TGI (RPMI-8226 leukemia) was over 100 µM and the TGI (SK-MEL-5 melanoma) was over 100 µM. For the same compound, the TGI (OVCAR-4 ovarian) was over 100 µM, the TGI (EKVX NSCLC) was over 100 µM and the TGI (UACC-257 melanoma) was over 100 µM. The TGI (NCI-H23 lung) was over 100 µM, the TGI (K-562 leukemia) was over 100 µM and the TGI (A498 renal) was over 100 µM. For the same compound, the TGI (CAKI-1 renal) was over 100 µM, the TGI (NCI-H522 lung) was over 100 µM and the TGI (DLD-1 colon) was over 100 µM. The TGI (LOX IMVI melanoma) was over 100 µM, the TGI (ACHN renal) was over 100 µM and the TGI (LXFL 529 NSCLC) was over 100 µM. The TGI (SF-539 CNS) was over 100 µM, the TGI (SK-MEL-28 melanoma) was over 100 µM and the TGI (HCT-116 colon) was over 100 µM. For the same compound, the TGI (TK-10 renal) was over 100 µM, the TGI (UO-31 renal) was over 100 µM and the TGI (RXF-631 renal) was over 100 µM. The TGI (HOP-18 NSCLC) was over 100 µM, the TGI (HCT-15 colon) was over 100 µM and the TGI (HOP-62 NSCLC) was over 100 µM. For the same compound, the TGI (SN12C renal) was over 100 µM, the TGI (M19-MEL melanoma) was over 100 µM and the TGI (UACC-62 melanoma) was over 100 µM. For the same compound, the TGI (HCC-2998 colon) was over 100 µM, the TGI (HL-60(TB) leukemia) was over 100 µM and the TGI (HT29 colon) was over 100 µM. It also gave a TGI (SF-268 CNS) of over 100 µM, a TGI (SNB-19 CNS) of over 100 µM and a TGI (MALME-3M melanoma) of over 100 µM. It also gave a TGI (SNB-78 CNS) of over 100 µM, a TGI (KM20L2 colon) of over 100 µM and a TGI (DMS 114 small cell lung) of over 100 µM. The TGI (SW-620 colon) was over 100 µM, the TGI (SK-OV-3 ovarian) was over 100 µM and the TGI (IGROV1 ovarian) was over 100 µM. For the same compound, the TGI (SF-295 CNS) was over 100 µM, the TGI (COLO 205 colon) was over 100 µM and the TGI (A549 NSCLC) was over 100 µM. The TGI (NCI-H460 lung) was over 100 µM and the TGI (XF 498 CNS) was over 100 µM.
With `O=C1C2C(C(=O)N1c1ccccc1)C1(Br)c3ccccc3C2(Br)C2C(=O)N(c3ccccc3)C(=O)C21` (configuration not stated) the TGI (U251 CNS) was over 31.6 µM, the TGI (786-0 renal) was over 31.6 µM and the TGI (SNB-75 CNS) was over 31.6 µM. It also gave a TGI (M14 melanoma) of over 31.6 µM, a TGI (KM12 colon) of over 31.6 µM and a TGI (OVCAR-5 ovarian) of over 31.6 µM. For the same compound, the TGI (OVCAR-3 ovarian) was over 31.6 µM, the TGI (RXF 393 renal) was 27.1 µM and the TGI (CCRF-CEM leukemia) was over 31.6 µM. It also gave a TGI (OVCAR-8 ovarian) of over 100 µM, a TGI (NCI-H226 lung) of over 31.6 µM and a TGI (RPMI-8226 leukemia) of over 31.6 µM. For the same compound, the TGI (SK-MEL-5 melanoma) was over 31.6 µM, the TGI (OVCAR-4 ovarian) was over 100 µM and the TGI (EKVX NSCLC) was over 31.6 µM. It also gave a TGI (UACC-257 melanoma) of over 31.6 µM, a TGI (NCI-H23 lung) of over 31.6 µM and a TGI (K-562 leukemia) of over 31.6 µM. It also gave a TGI (A498 renal) of over 100 µM, a TGI (CAKI-1 renal) of over 100 µM and a TGI (DLD-1 colon) of over 31.6 µM. For the same compound, the TGI (LOX IMVI melanoma) was over 31.6 µM, the TGI (ACHN renal) was over 31.6 µM and the TGI (LXFL 529 NSCLC) was over 31.6 µM. It also gave a TGI (SF-539 CNS) of over 31.6 µM, a TGI (SK-MEL-28 melanoma) of over 31.6 µM and a TGI (HCT-116 colon) of over 31.6 µM. For the same compound, the TGI (TK-10 renal) was over 31.6 µM, the TGI (UO-31 renal) was over 31.6 µM and the TGI (RXF-631 renal) was over 100 µM. For the same compound, the TGI (HOP-18 NSCLC) was over 31.6 µM, the TGI (HCT-15 colon) was over 31.6 µM and the TGI (SN12C renal) was over 31.6 µM. It also gave a TGI (M19-MEL melanoma) of over 31.6 µM, a TGI (UACC-62 melanoma) of over 31.6 µM and a TGI (HCC-2998 colon) of over 31.6 µM. It also gave a TGI (SK-MEL-2 melanoma) of over 31.6 µM, a TGI (HL-60(TB) leukemia) of over 31.6 µM and a TGI (HT29 colon) of over 31.6 µM. The TGI (DMS 273 small cell lung) was over 31.6 µM, the TGI (SF-268 CNS) was over 31.6 µM and the TGI (SNB-19 CNS) was over 31.6 µM. It also gave a TGI (MALME-3M melanoma) of over 31.6 µM, a TGI (SNB-78 CNS) of over 31.6 µM and a TGI (KM20L2 colon) of over 31.6 µM. The TGI (DMS 114 small cell lung) was over 31.6 µM, the TGI (SW-620 colon) was over 31.6 µM and the TGI (SK-OV-3 ovarian) was over 100 µM. It also gave a TGI (IGROV1 ovarian) of over 31.6 µM, a TGI (SF-295 CNS) of over 100 µM and a TGI (COLO 205 colon) of over 31.6 µM. It also gave a TGI (A549 NSCLC) of over 31.6 µM, a TGI (MOLT-4 leukemia) of over 31.6 µM and a TGI (NCI-H460 lung) of over 31.6 µM. For the same compound, the TGI (XF 498 CNS) was over 100 µM.
